Patent US10450260B2, “NO- and H2S-releasing compounds” (RESEARCH FOUNDATION OF THE CITY UNIVERSITY OF NEW YORK, priority 2011, dated 2019)
Where two headings read alike, the source gives them in different places.

What was measured:
Format in all cases: cell-based
[1] = test system: HCT-15 human colon adenocarcinoma; assay: MTT cell growth inhibition, HCT15; details: for IC50: Homo sapiens, HCT-15; for Ratio NSAID/NOSH-NSAID, HCT15: fold-enhancement in potency over the parent compound
Experimental: (§1) All cells lines were grown as monolayers except for the Jurkats which were grown in suspension. […] All media were supplemented with 10% fetal calf serum (Invitrogen, Carlsbad, Calif.) penicillin (50 U/ml), and streptomycin (50 μg/ml) (Invitrogen, Carlsbad, Calif.). Cells were seeded on culture dishes at a density of 25×10^3 cells/cm^2 and incubated at 37° C. in 5% CO2 and 90% relative humidity. Single cell suspensions were obtained by trypsinization (0.05% trypsin/EDTA), and cells were counted using a hemocytometer. Viability was determined by the trypan blue dye exclusion method.
(§2) Cell growth inhibitory effect of NOSH compounds were measured using a colorimetric MTT assay kit (Roche, Indianapolis, Ind.). Cancer cells were plated in 96-well plates at a density of 50,000 cells/well. The cells were incubated for 24 h with different concentrations of NOSH compounds. After the indicated time, 10 μl of MTT dye (3-[4,5-dimethylthiazol-2-yl]-2,5-diphenyl tetrazolium bromide, 5 mg/ml in phosphate buffered saline), was added to each well, and the plates were incubated for 2 hours at 37° C. Then, the media was aspirated, and add 100 μl of the solubilization solution (10% SDS in 0.01 M HCl) was added to each well to solubilize the formant crystals. The absorbance of the plates was measured on an ELISA reader at a wavelength of 570 nm. Each sample was performed in triplicate, and the entire experiment was repeated three times.
(§3) All media were supplemented with 10% fetal calf serum (Invitrogen, Carlsbad, Calif.) penicillin (50 U/ml), and streptomycin (50 μg/ml) (Invitrogen, Carlsbad, Calif.). Cells were seeded on culture dishes at a density of 25×10^3 cells/cm^2 and incubated at 37° C. in 5% CO2 and 90% relative humidity. Single cell suspensions were obtained by trypsinization (0.05% trypsin/EDTA), and cells were counted using a hemacytometer. The final DMSO concentration was adjusted in all media to 1%. Viability was determined by the trypan blue dye exclusion method.
(§4) Cell growth inhibitory effect of all NOSH-NSAIDs was measured using a colorimetric MTT assay kit (Roche, Indianapolis, Ind.). Cancer cells were plated in 96-well plates at a density of 30,000-50,000 cells/well depending on cell type. The cells were incubated for 24 hours with different concentrations of NOSH-NSAIDs. After the indicated time, 10 μL of MTT dye (3-[4,5-dimethylthiazol-2-yl]-2,5-diphenyl tetrazolium bromide, 5 mg/mL in phosphate buffered saline), was added to each well, and the plates were incubated for 2 hours at 37° C. Then, the media was aspirated, and 100 μL of the solubilization solution (10% SDS in 0.01 M HCl) was added to each well to solubilize the formant crystals. The absorbance of the plates was measured on a spectrophotometric plate reader at a wavelength of 570 nm. Each experiment was performed in triplicate, and the entire experiment was repeated three times.

[2] = test system: SW-480 human colon adenocarcinoma; assay: MTT cell growth inhibition, SW480; details: for IC50: Homo sapiens, SW480; for Ratio NSAID/NOSH-NSAID, SW480: fold-enhancement in potency over the parent compound
Experimental: as §1, §2, §3, §4

[3] = test system: SK-BR-3 human breast cancer; assay: MTT cell growth inhibition, SKBR3; details: for IC50: Homo sapiens, SK-BR-3; for Ratio NSAID/NOSH-NSAID, SKBR3: fold-enhancement in potency over the parent compound
Experimental: as §1, §2, §3, §4

[4] = test system: MCF-7 human breast cancer; assay: MTT cell growth inhibition, MCF7; details: for IC50: Homo sapiens, MCF7; for Ratio NSAID/NOSH-NSAID, MCF7: fold-enhancement in potency over the parent compound
Experimental: (§5) HT-29, SW-480 and HCT-15 human colon adenocarcinoma, MIA PaCa-2 and BxPC-3 human pancreatic cancer, LNCAP human prostate cancer, A549 human lung cancer, MCF-7 (estrogen receptor positive), MDA-MB 231 and SK-BR-3 (estrogen receptor negative) human breast cancer, and Jurkats human leukemia cell lines were obtained from American Type Tissue Collection (Manassas, Va.). All cells lines were grown as monolayers except for the Jurkats which were grown in suspension. The pancreatic and breast cancer cells were grown in Dulbecco's modified Eagle's medium, the prostate, Jurkat, SW-480 and HCT-15 colon cells were grown in RPMI 1640 medium, the lung cells were grown in F-12 and the colon HT-29 cells were grown in McCoy 5A. All media were supplemented with 10% fetal calf serum (Invitrogen, Carlsbad, Calif.) penicillin (50 U/ml), and streptomycin (50 μg/ml) (Invitrogen, Carlsbad, Calif.). Cells were seeded on culture dishes at a density of 25×10^3 cells/cm^2 and incubated at 37° C. in 5% CO2 and 90% relative humidity. Single cell suspensions were obtained by trypsinization (0.05% trypsin/EDTA), and cells were counted using a hemocytometer. Viability was determined by the trypan blue dye exclusion method.
as §2
(§6) HT-29, SW-480 and HCT-15 human colon adenocarcinoma, MIA PaCa-2 and BxPC-3 human pancreatic cancer, LNCAP human prostate cancer, A549 and H383 human lung cancer, MCF-7, MDA-MB 231 and SK-BR-3 human breast cancer and Jurkat T cell human leukemia cell lines were obtained from American Type Tissue Collection (Manassas, Va.) All cells lines were grown as monolayers except for the Jurkat T cells which were grown as suspension culture. The pancreatic and breast cancer cells were grown in Dulbecco's modified Eagle's medium, the prostate, Jurkat, SW-480 and HCT-15 colon cells were grown in RPMI 1640 medium, the lung cells were grown in F-12 and the colon HT-29 cells were grown in McCoy 5A. All media were supplemented with 10% fetal calf serum (Invitrogen, Carlsbad, Calif.) penicillin (50 U/ml), and streptomycin (50 μg/ml) (Invitrogen, Carlsbad, Calif.). Cells were seeded on culture dishes at a density of 25×10^3 cells/cm^2 and incubated at 37° C. in 5% CO2 and 90% relative humidity. Single cell suspensions were obtained by trypsinization (0.05% trypsin/EDTA), and cells were counted using a hemacytometer. The final DMSO concentration was adjusted in all media to 1%. Viability was determined by the trypan blue dye exclusion method.
as §4, with “The absorbance of the plates was measured on a spectrophotometric plate reader at a wavelength of 570 nm. Each experiment was performed in triplicate, and the entire experiment was repeated three times.” left out

[5] = test system: BxPC-3 human pancreatic cancer; assay: MTT cell growth inhibition, BxPC3; details: for IC50: Homo sapiens, BXPC-3, read-out: IC50 for cell growth inhibition, Pancreas BxPC3; for Ratio NSAID/NOSH-NSAID, BxPC3: fold-enhancement in potency over the parent compound
Experimental: as §5, §2, §6
as §4, with “The absorbance of the plates was measured on a spectrophotometric plate reader at a wavelength of 570 nm. Each experiment was performed in triplicate, and the entire experiment was repeated three times.” left out

A549 human lung cancer = assay: MTT cell growth inhibition, A549; details: for IC50: Homo sapiens, A549; for Ratio NSAID/NOSH-NSAID, A549: fold-enhancement in potency over the parent compound
Experimental: as §5, §2, §6
as §4, with “The absorbance of the plates was measured on a spectrophotometric plate reader at a wavelength of 570 nm. Each experiment was performed in triplicate, and the entire experiment was repeated three times.” left out

[6] = test system: LNCAP human prostate cancer; assay: MTT cell growth inhibition, LNCAP; details: for IC50: Homo sapiens, LNCaP; for Ratio NSAID/NOSH-NSAID, LNCAP: fold-enhancement in potency over the parent compound
Experimental: as §5, §2, §6
as §4, with “The absorbance of the plates was measured on a spectrophotometric plate reader at a wavelength of 570 nm. Each experiment was performed in triplicate, and the entire experiment was repeated three times.” left out

[7] = 24 hours, read-out: IC50 for cell growth inhibition, Lung A540
[8] = 24 hours (Table 7), read-out: IC50 for cell growth inhibition, Lung A549

Row | IC50 ([1]; 24 hours) [µM] | IC50 ([2]; 24 hours) [µM] | IC50 ([3]; 24 hours) [µM] | IC50 ([4]; 24 hours) [µM] | IC50 ([5]; 24 hours) [µM] | IC50 (A549 human lung cancer; [7]) [µM] | IC50 ([6]; 24 hours) [µM] | SMILES | IC50 ([1]; 24 hours (Table 7)) [µM] | IC50 ([2]; 24 hours (Table 7)) [µM] | IC50 ([3]; 24 hours (Table 7)) [µM] | IC50 ([4]; 24 hours (Table 7)) [µM] | IC50 ([5]; 24 hours (Table 7)) [µM] | IC50 (A549 human lung cancer; [8]) [µM] | IC50 ([6]; 24 hours (Table 7)) [µM] | further results
1 | 0.09 ± 0.006 | 0.097 ± 0.007 | 0.088 ± 0.007 | 0.07 ± 0.005 | 0.1 ± 0.009 | 0.12 ± 0.014 | 0.1 ± 0.012 | O=C(CCC(=O)Oc1ccccc1C(=O)Oc1ccc(-c2cc(=S)ss2)cc1)OCCCCO[N+](=O)[O-] [NOSH-2, 4-(nitrooxy)butyl (2-((4-(3-thioxo-3H-1,2-dithiol-5-yl)phenoxy)carbonyl)phenyl) succinate] | – | – | – | – | – | – | – | –
2 | 5.9 ± 0.305 | 5.3 ± 0.24 | 6.5 ± 0.268 | 5.7 ± 0.323 | 5.5 ± 0.39 | 6.5 ± 0.224 | 4.3 ± 0.212 | NC(=S)c1ccc(OC(=O)c2ccccc2OC(=O)CCCO[N+](=O)[O-])cc1 [NOSH-3, 4-carbamothioylphenyl 2-((4-(nitrooxy)butanoyl)-oxy)benzoate] | – | – | – | – | – | – | – | –

More lines, now with the values behind:

Row | SMILES | IC50 ([1]; 24 hours) [µM] | IC50 ([2]; 24 hours) [µM] | IC50 ([3]; 24 hours) [µM] | IC50 ([4]; 24 hours) [µM] | IC50 ([5]; 24 hours) [µM] | IC50 (A549 human lung cancer; [7]) [µM] | IC50 ([6]; 24 hours) [µM] | IC50 ([1]; 24 hours (Table 7)) [µM] | IC50 ([2]; 24 hours (Table 7)) [µM] | IC50 ([3]; 24 hours (Table 7)) [µM] | IC50 ([4]; 24 hours (Table 7)) [µM] | IC50 ([5]; 24 hours (Table 7)) [µM] | IC50 (A549 human lung cancer; [8]) [µM] | IC50 ([6]; 24 hours (Table 7)) [µM] | further results
3 | O=C(CCCO[N+](=O)[O-])Oc1ccccc1C(=O)Oc1ccc(-c2cc(=S)ss2)cc1 [NOSH-1, 4-(3-thioxo-3H-1,2-dithiol-5-yl)phenyl 2-((4-(nitrooxy)butanoyl)oxy)benzoate] | 0.05 ± 0.005 | 0.06 ± 0.004 | 0.075 ± 0.005 | 0.28 ± 0.016 | 0.057 ± 0.004 | 0.05 ± 0.007 | 0.088 ± 0.008 | – | – | – | – | – | – | – | –
4 | O=C(CCCC[C@@H]1CCSS1)Oc1ccccc1C(=O)OCCCCO[N+](=O)[O-] [NOSH-4, (R)-4-(nitrooxy)butyl 2-((5-(1,2-dithiolan-3-yl)pentanoyl)oxy)benzoate] | 0.52 ± 0.021 | 0.6 ± 0.025 | 0.55 ± 0.028 | 0.28 ± 0.015 | 0.7 ± 0.032 | 0.3 ± 0.012 | 0.5 ± 0.018 | – | – | – | – | – | – | – | –
5 | CC(C(=O)Oc1ccc(-c2cc(=S)ss2)cc1)c1ccc2cc(OC(=O)CCCO[N+](=O)[O-])ccc2c1 (centres unmarked) [NOSH-7, 6-(1-oxo-1-(4-(3-thioxo-3H-1,2-dithiol-5-yl)phenoxy)propan-2-yl)naphthalen-2-yl 4-(nitrooxy)butanoate] | – | – | – | – | – | – | – | 0.1 | 0.098 | 0.1 | 0.11 | 0.08 | 0.1 | 0.13 | Ratio NSAID/NOSH-NSAID, HCT15 [1]: 28,500; Ratio NSAID/NOSH-NSAID, SW480 [2]: 31,734; Ratio NSAID/NOSH-NSAID, SKBR3 [3]: 28,900; Ratio NSAID/NOSH-NSAID, MCF7 [4]: 21,363; Ratio NSAID/NOSH-NSAID, BxPC3 [5]: 30,625; Ratio NSAID/NOSH-NSAID, A549 (A549 human lung cancer): 26,500; Ratio NSAID/NOSH-NSAID, LNCAP [6]: 23,000
6 | CC1=C(CC(=O)Oc2ccc(OC(=O)CCCO[N+](=O)[O-])c(C(=O)Oc3ccc(-c4cc(=S)ss4)cc3)c2)c2cc(F)ccc2/C1=C/c1ccc([S+](C)[O-])cc1 (centres unmarked) [NOSH-8, (E)-4-(3-thioxo-3H-1,2-dithiol-5-yl)phenyl 5-(2-(5-fluoro-2-methyl-1-(4-(methylsulfinyl)benzylidene)-1H-inden-3-yl)acetoxy)-2-((4-(nitrooxy)butanoyl)oxy)benzoate] | – | – | – | – | – | – | – | 0.11 | 0.11 | 0.12 | 0.11 | 0.11 | 0.18 | 0.09 | Ratio NSAID/NOSH-NSAID, HCT15 [1]: 7,727; Ratio NSAID/NOSH-NSAID, SW480 [2]: 6,454; Ratio NSAID/NOSH-NSAID, SKBR3 [3]: 7,041; Ratio NSAID/NOSH-NSAID, MCF7 [4]: 8,772; Ratio NSAID/NOSH-NSAID, BxPC3 [5]: 8,818; Ratio NSAID/NOSH-NSAID, A549 (A549 human lung cancer): 1,177; Ratio NSAID/NOSH-NSAID, LNCAP [6]: 9,000
7 | COc1ccc2cc([C@H](C)C(=O)O)ccc2c1 [naproxen, reference compound] | – | – | – | – | – | – | – | – | – | – | 2350 | 2450 | – | – | –
8 | CC1=C(CC(=O)O)c2cc(F)ccc2/C1=C\c1ccc([S+](C)[O-])cc1 (centres unmarked) [sulindac, reference compound] | – | – | – | – | – | – | – | 850 | 710 | 845 | 965 | 970 | 212 | 810 | –
